According to US9615577B2, “Herbicidally active cyclic dione compounds, or derivatives therefor, substituted by a phenyl which has an alkynyl-containing substituent” (Syngenta Limited, priority 2012, dated 2017):

Experiments:
Type in all cases: in vivo
[1] = test system: Alopecurus myosuroides (ALOMY); assay: Test 1A glasshouse assay for herbicidal activity, pre-emergence; details: 312 h, 250 g/ha, evaluated after 13 days, read-out: percentage phytotoxicity ALOMY
Outline: (§1)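 Visual % phytotoxicity (0 = no damage, 100 = total damage) scored 13 d after spraying. Pots sown in standard soil; spray applied 1 d post-sowing for pre-emergence, 8 d for post-emergence. Vehicle acetone/water 50:50 + 0.5% Tween 20; glasshouse 24/16 °C, 14 h light, 65% RH, watered twice daily.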

[2] = test system: Amaranthus retroflexus (AMARE); assay: as above; details: 312 h, 250 g/ha, evaluated after 13 days, read-out: percentage phytotoxicity AMARE
Outline: as §1

[3] = test system: Echinochloa crus-galli (ECHCG); assay: as above; details: 312 h, 250 g/ha, evaluated after 13 days, read-out: percentage phytotoxicity ECHCG
Outline: as §1

[4] = test system: Ipomoea hederacea (IPOHE); assay: as above; details: 312 h, evaluated after 13 days, read-out: percentage phytotoxicity IPOHE
Outline: as §1

Setaria faberi (SETFA) [5] = assay: as above; details: 312 h, 250 g/ha, evaluated after 13 days, read-out: percentage phytotoxicity SETFA
Outline: as §1

Solanum nigrum (SOLNI) [6] = assay: as above; details: 312 h, evaluated after 13 days, read-out: percentage phytotoxicity SOLNI
Outline: as §1

[7] = test system: Alopecurus myosuroides (ALOMY); assay: Test 1A glasshouse assay for herbicidal activity, post-emergence; details: 312 h, 250 g/ha, evaluated after 13 days, read-out: percentage phytotoxicity ALOMY
Outline: as §1

[8] = test system: Amaranthus retroflexus (AMARE); assay: as above; details: 312 h, 250 g/ha, evaluated after 13 days, read-out: percentage phytotoxicity AMARE
Outline: as §1

[9] = test system: Echinochloa crus-galli (ECHCG); assay: as above; details: 312 h, 250 g/ha, evaluated after 13 days, read-out: percentage phytotoxicity ECHCG
Outline: as §1

[10] = test system: Ipomoea hederacea (IPOHE); assay: as above; details: 312 h, 250 g/ha, evaluated after 13 days, read-out: percentage phytotoxicity IPOHE
Outline: as §1

Setaria faberi (SETFA) [11] = assay: as above; details: 312 h, 250 g/ha, evaluated after 13 days, read-out: percentage phytotoxicity SETFA
Outline: as §1

Solanum nigrum (SOLNI) [12] = assay: as above; details: 312 h, 250 g/ha, evaluated after 13 days, read-out: percentage phytotoxicity SOLNI
Outline: as §1

[13] = test system: Brassica napus (BRSNN, rape); assay: Test 1B glasshouse assay for herbicidal activity, post-emergence; details: 360 h; for plant injury at 60 g/ha: 60 g/ha application rate
Protocol: (§2) Seeds of a variety of monocotyledonous and dicotyledonous test plants are sown in standard soil in pots. The plants are cultivated for one day (for pre-emergence) or for about 12 days (range=10-13 days) (for post-emergence) under controlled conditions in a glasshouse (warm climate species at 24/18° C., cool climate species at 20/16° C., both at day/night; 16 hours light; 65% humidity).
(§3) An “instant formulation”, known as the “IF50”, containing 50 g/liter (i.e. 5% w/v) of the “technical” (i.e. unformulated) active ingredient is prepared by dissolving the active ingredient in a mixture of organic solvents and emulsifier, details of which are provided in the Table below. This IF50 is then mixed with a small, variable amount of acetone to aid dissolution, before addition of a 0.2% v/v aqueous solution of the adjuvant X-77 (which is a mixture of alkyl aryl polyoxyethylene glycols and free fatty acids in isopropanol, CAS Registry number 11097-66-8), as the aqueous diluent, to form an aqueous spray solution which contains a predetermined concentration of the active ingredient (which varies depending on the application rate of the active ingredient to the plants) and 0.2% v/v of the adjuvant X-77. This aqueous spray solution is then sprayed onto the plants, after one day's cultivation (for pre-emergence) or after about 12 days' cultivation (for post-emergence).
(§4) The test plants are then grown on, in a glasshouse (greenhouse) under controlled conditions (at either 24/18° C. or 20/16° C. (day/night) as mentioned above; 16 hours light; 65% humidity) and are watered twice daily. Either 15 days after application of the herbicide (15 DAA) (for post-emergence), or 20 days after application of the herbicide (20 DAA) (for pre-emergence), the test plants are evaluated visually, and an assessed percentage phytotoxicity score is given for each herbicidal application on each plant species (where 100%=total damage to plant; 0%=no damage to plant).
(§5) Cool climate crop plants: Triticum aestivum (TRZAW, winter wheat), Brassica napus (BRSNN, rape, also called oilseed rape or rapeseed), Beta vulgaris (BEAVA, sugar beet).

[14] = test system: Triticum aestivum (TRZAW, winter wheat); assay: as above; details: 360 h; for plant injury at 60 g/ha: 60 g/ha application rate
Protocol: as §2, §3, §4, §5

[15] = test system: Glycine max (GLXMA, soybean); assay: as above; details: 360 h; for plant injury at 60 g/ha: 60 g/ha application rate
Protocol: as §2, §3, §4
Warm climate crop plants: Glycine max (GLXMA, soybean).

[16] = test system: Alopecurus myosuroides (ALOMY); assay: as above; details: 360 h; for pest or weed control at 60 g/ha: 60 g/ha application rate
Protocol: as §2, §3, §4
(§6) Cool climate (“cool season”) grassy monocotyledonous weeds: Alopecurus myosuroides (ALOMY), Avena fatua (AVEFA), Lolium perenne (LOLPE).

Avena fatua (AVEFA) = assay: as above; details: 360 h; for pest or weed control at 60 g/ha: 60 g/ha application rate
Protocol: as §2, §3, §4, §6

Lolium perenne (LOLPE) = assay: as above; details: 360 h; for pest or weed control at 60 g/ha: 60 g/ha application rate
Protocol: as §2, §3, §4, §6

[17] = test system: Brachiaria plantaginea (BRAPL); assay: as above; details: Urochloa plantaginea; for pest or weed control at 60 g/ha: 60 g/ha application rate
Protocol: as §2, §3, §4
(§7) Warm climate (“warm season”) grassy monocotyledonous weeds: Setaria faberi (SETFA), SORVU (Sorghum bicolor (L.) Moench ssp. Bicolor, or Sorghum vulgare Pers.), Digitaria sanguinalis (DIGSA), Echinochloa crus-galli (ECHCG), and Brachiaria plantaginea (BRAPL).

[18] = test system: Digitaria sanguinalis (DIGSA); assay: as above; details: 360 h; for pest or weed control at 60 g/ha: 60 g/ha application rate
Protocol: as §2, §3, §4, §7

Setaria faberi (SETFA) [19] = assay: as above; details: 360 h; for pest or weed control at 60 g/ha: 60 g/ha application rate
Protocol: as §2, §3, §4, §7

[20] = test system: Echinochloa crus-galli (ECHCG); assay: as above; details: for pest or weed control at 60 g/ha: 60 g/ha application rate
Protocol: as §2, §3, §4, §7
Note: The herbicidal activity data (e.g. post-emergence) shown above in Biological Example 1B for Comparator compounds X-9 and X-10 is thought likely to have been measured some years ago, probably using a variant of the above-described test method. Also, for the post-emergence activity of X-9 and X-10 it is not currently known exactly how many days after application of the herbicide the phytotoxicity on the plants was measured.

[21] = test system: Alopecurus myosuroides (ALOMY); assay: Biological Example 2 comparative herbicidal data, post-emergence glasshouse screen; details: 312 h, read-out: Post-emergence herbicidal activities (percentage phytotoxicity) ALOMY
Outline: (§8)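 Plants grown 8 days in a glasshouse (24/16°C day/night, 14 h light, 65% humidity) were sprayed with compound in acetone/water (50:50) containing 0.5% Tween 20. They were kept under the same conditions and watered twice daily. Phytotoxicity was scored visually after 13 days (0 = no damage, 100 = total damage).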

[22] = test system: Echinochloa crus-galli (ECHCG); assay: as above; details: 312 h, read-out: Post-emergence herbicidal activities (percentage phytotoxicity) ECHCG
Outline: as §8

Setaria faberi (SETFA) [23] = assay: as above; details: 312 h, read-out: Post-emergence herbicidal activities (percentage phytotoxicity) SETFA
Outline: as §8

[24] = test system: Beta vulgaris (BEAVA, sugar beet); assay: Test 1B glasshouse assay for herbicidal activity, post-emergence; details: 360 h, 250 g/ha application rate
Protocol: as §2, §3, §4, §5

[25] = test system: SORVU (Sorghum bicolor (L.) Moench ssp. Bicolor, or Sorghum vulgare Pers.); assay: as above; details: 360 h, 250 g/ha application rate
Protocol: as §2, §3, §4, §7

Row | SMILES | pest or weed control at 250 g/ha [1] [%] | pest or weed control at 250 g/ha [2] [%] | pest or weed control at 250 g/ha [3] [%] | pest or weed control at 250 g/ha [4] [%] | pest or weed control at 250 g/ha (Setaria faberi (SETFA) [5]) [%] | pest or weed control at 250 g/ha (Solanum nigrum (SOLNI) [6]) [%] | pest or weed control at 250 g/ha [7] [%] | pest or weed control at 250 g/ha [8] [%] | pest or weed control at 250 g/ha [9] [%] | pest or weed control at 250 g/ha [10] [%] | pest or weed control at 250 g/ha (Setaria faberi (SETFA) [11]) [%] | pest or weed control at 250 g/ha (Solanum nigrum (SOLNI) [12]) [%] | plant injury at 60 g/ha [13] [%] | plant injury at 60 g/ha [14] [%] | plant injury at 60 g/ha [15] [%] | pest or weed control at 60 g/ha [16] [%] | pest or weed control at 60 g/ha (Avena fatua (AVEFA)) [%] | pest or weed control at 60 g/ha (Lolium perenne (LOLPE)) [%] | pest or weed control at 60 g/ha [17] [%] | pest or weed control at 60 g/ha [18] [%] | other results
1 | CC#Cc1cc(C)c(C2C(=O)C3CCC(C3)C2=O)c(CCC)c1 (stereo not shown) [Compound A-3] | 100 | 0 | 100 | 40 | 100 | 0 | 90 | 10 | 100 | 0 | 90 | 20 |  |  |  |  |  |  |  |  | 
2 | CCc1cc(C)cc(CC)c1C1C(=O)C2CCC(C2)C1=O (stereo not shown) [Compound X-10, reference compound] |  |  |  |  |  |  |  |  |  |  |  |  | 0 | 20 | 0 | 80 | 50 | 70 | 90 | 100 | pest or weed control at 60 g/ha (Setaria faberi (SETFA) [19]): 100%; post-emergence activity on ECHCG compared with Compound A-5 ([20]; 60 g/ha, probably a variant of the test method, days after application not known): lower post-emergence activity; pest or weed control at 60 g/ha ([20]; Echinochloa crus-galli): 70%
3 | CC#Cc1cc(Cl)c(C2C(=O)C3CCC(C3)C2=O)c(CC)c1 (stereo not shown) [Compound A-4] | 100 | 0 | 100 | 0 | 70 | 0 | 90 | 0 | 100 | 0 | 80 | 0 |  |  |  |  |  |  |  |  | 
4 | Cc1cc(C)c(C2C(=O)C3CCC(C3)C2=O)c(C)c1 (stereo not shown) [Compound X-9, reference compound] |  |  |  |  |  |  |  |  |  |  |  |  | 0 | 0 | 0 | 20 | 0 | 0 | 80 | 70 | plant injury at 125 g/ha ([13]; 125 g/ha application rate): 20%; plant injury at 125 g/ha ([14]; 125 g/ha application rate): 0%; plant injury at 125 g/ha ([15]; 125 g/ha application rate): 0%; pest or weed control at 125 g/ha ([16]; 125 g/ha application rate): 40%; pest or weed control at 125 g/ha (Avena fatua (AVEFA); 125 g/ha application rate): 0%; pest or weed control at 125 g/ha (Lolium perenne (LOLPE); 125 g/ha application rate): 40%; pest or weed control at 125 g/ha ([17]; 125 g/ha application rate): 80%; pest or weed control at 125 g/ha ([18]; 125 g/ha application rate): 80%; pest or weed control at 60 g/ha (Setaria faberi (SETFA) [19]): 80%; pest or weed control at 125 g/ha (Setaria faberi (SETFA) [19]; 125 g/ha application rate): 80%; pest or weed control at 60 g/ha ([20]; Echinochloa crus-galli): 40%; pest or weed control at 125 g/ha ([20]; Echinochloa crus-galli, 125 g/ha application rate): 60%
5 | Cc1cc(C#CCl)ccc1C1C(=O)C(C)(C)OC(C)(C)C1=O [Compound A-7] | 80 | 60 | 80 | 20 | 30 | 40 | 80 | 0 | 80 | 20 | 80 | 50 |  |  |  |  |  |  |  |  | pest or weed control at 15.625 g/ha ([21]; 15.625 g/ha application rate): 30%; pest or weed control at 62.5 g/ha ([21]; 62.5 g/ha application rate): 50%; pest or weed control at 15.625 g/ha ([22]; 15.625 g/ha application rate): 0%; pest or weed control at 62.5 g/ha ([22]; 62.5 g/ha application rate): 60%; pest or weed control at 15.625 g/ha (Setaria faberi (SETFA) [23]; 15.625 g/ha application rate): 40%; pest or weed control at 62.5 g/ha (Setaria faberi (SETFA) [23]; 62.5 g/ha application rate): 60%
6 | CC#Cc1cc(Cl)c(C2C(=O)C3CCC(C3)C2=O)c(OCCOC)c1 (stereo not shown) [Compound A-18] |  |  |  |  |  |  |  |  |  |  |  |  |  |  |  |  |  |  |  |  | plant injury at 250 g/ha [24]: 30%; plant injury at 250 g/ha ([13]; 250 g/ha application rate): 30%; plant injury at 250 g/ha ([14]; 250 g/ha application rate): 10%; plant injury at 250 g/ha ([15]; 250 g/ha application rate): 20%; pest or weed control at 250 g/ha ([16]; 250 g/ha application rate): 0%; pest or weed control at 250 g/ha (Avena fatua (AVEFA); 250 g/ha application rate): 20%; pest or weed control at 250 g/ha (Lolium perenne (LOLPE); 250 g/ha application rate): 0%; pest or weed control at 250 g/ha ([17]; 250 g/ha application rate): 70%; pest or weed control at 250 g/ha ([18]; 250 g/ha application rate): 90%; pest or weed control at 250 g/ha [25]: 100%; pest or weed control at 250 g/ha (Setaria faberi (SETFA) [19]; 250 g/ha application rate): 80%; pest or weed control at 250 g/ha ([20]; Echinochloa crus-galli, 250 g/ha application rate): 90%
